The source of these data is patent US5763673A, “Diarylheptanoide derivative and pharmaceutical composition comprising the same” (Kabushiki Kaisha Yakult Honsha, priority 1994, dated 1998).

Series [1] concerns TPA induced edematization in ears. Put plainly: Ear edema induction test with TPA (12-O-tetradecanoylphorbol-13-acetate). It counts as in vivo, ICR male mouse. Conditions: 0.5 mg/ear; for Rate of inhibition (%): 4 h after TPA, relative to rate of edematization of control group taken as 100; for Rate of edematization (%): both sides of right ear, 4 h after TPA (10 μl of 40 μg/ml), control group 161.1. The protocol: Four hours after the application of TPA, the center of right and left ears was cut out with a punch with a diameter of 6.5 mm to measure the weights. The rate of edematization of ears was calculated according to the following formula: [formula] The rate of edema enlargement inhibition was determined taking the rate of edematization of the control group to which no compound was applied as 100.

Series [2] deals with 5-lipoxygenase. As to conditions: background, as reported; cited from earlier work.
Another series concerns ears of mice. The experiment in a line: Toxicity on application to ears of mice. It is filed as in vivo. Conditions: 5 mg/ear, 10 times the effective concentration.
In series [3] the test system is 5-lipoxygenase. The experiment in a line: 5-Lipoxygenase inhibiting activity (5-HETE production). It counts as biochemical, rat. Conditions: RBL-1 5-lipoxygenase; 5-HETE by HPLC; values only in FIG. 1. On the procedure: A sample of 5-lipoxygenase was prepared from basophilic leukemia cells of rat (RBL-1). First, the RBL-1 was cultured in an MEM medium (manufactured by Nissui Pharmaceutical Co.) containing 0.0292% of L-glutamine and 10% of FCS under conditions of 5% CO2 and at 37° C. for 3 days. After culture, the cells were collected by centrifuge (1000 rpm, 10 min., 4° C.) and washed twice with Dulbeccol's PBS (-) (manufactured by Nissui Pharmaceutical Co.) . The cells were suspended in 50 ml of Tris-HCl buffer (pH 7.4) at a concentration of 7.5×10^7 cells/ml. The cell suspension was ultrasonically treated in an ice bath and centrifuged (1300 rpm, 30 min., 4° C.) to obtain a 5- lipoxygenase sample as supernatant.
76 μl of 50 mM Tris-HCl buffer (pH 7.4) containing 2.56 mM of CaCl2 and 2.56 mM of ATP and 20 μl of 5-lipoxygenase sample prepared above were added to 2μl of a solution containing a prescribed amount of the diarylheptanoide derivative (1) prepared in Example 1 in DSMO. The mixture was incubated at 37° C. […] The amount of 5-HETE in the supernatant was measured by HPLC (column: Nova-pak 5C18; eluant: a 60:40 acetonitrile:0.05 M KH2 PO4 solution with 5 mM trihexyl bromide added; flow rate: 0.8 ml/min.; wavelength: 235 nm). The amount of 5-HETE produced was calculated from the peak area of the 5-HETE. […]

Structures are written as SMILES.

As to `O=C(C=Cc1ccc(O)c(O)c1)CCCCc1ccccc1` [(6), 1-(3,4-dihydroxyphenyl)-7-phenyl-1-heptene-3-one, reference compound], in series [1], the “Rate of inhibition (%)” value is 84.5% and the “Rate of edematization (%)” value is listed as 24.9%. The “5-lipoxygenase inhibiting activity (in words)” value with 5-lipoxygenase [2] is “most strong 5-lipoxygenase inhibiting action”.
`COc1cc(C=CC(=O)CCCCc2ccccc2)cc(OC)c1O` [Compound (1), 1-(3,5-dimethoxy-4-hydroxyphenyl)-7-phenyl-1-heptene-3-one]: in series [1], the “effect compared with comparative compound (6) (in words)” value is “stronger than that of the comparative compound”, the “effect for inhibiting TPA induced edematization in ears (in words)” value is given as “strong effect for inhibiting TPA induced edematization in ears”, the “Rate of inhibition (%)” value was 96.1% and the “Rate of edematization (%)” value is 6.3%. Further, the “toxicity (in words)” value with ears of mice is reported as “No toxicity was exhibited”. In the series with 5-lipoxygenase [3], the “5-lipoxygenase inhibiting effect (in words)” value is recorded as “strong 5-lipoxygenase inhibiting effect”.
On to `COc1cc(CCC(=O)CCCCc2ccccc2)ccc1O` [Yakuchinone-A], for which the “5-lipoxygenase inhibiting activity (in words)” value in the series with 5-lipoxygenase [2] is on record as “exhibiting a 5-lipoxygenase inhibiting activity”.
On to `COc1cc(/C=C/C(=O)CCCCc2ccccc2)ccc1O` [Yakuchinone-B], for which, in the series with 5-lipoxygenase [2], the “5-lipoxygenase inhibiting activity (in words)” value was “exhibiting a 5-lipoxygenase inhibiting activity”.
